In patent US9045482B2, “Pyrido[4,3-B]indoles and methods of use” (Medivation Technologies, Inc., priority 2009, dated 2015):

Key:
[1] = target: human recombinant serotonin (5-Hydroxytryptamine) 5-HT7 receptor (Homo sapiens, UniProt P34969); experiment: Serotonin 5-HT7 radioligand binding ([3H]LSD)
Protocol: Compounds of invention were incubated with 5.5 nM [^3H]Lysergic acid diethylamide (LSD) for 2 h at 25° C. […] Receptor proteins were filtered and washed, the filters were then counted to determine [^3H]LSD specifically bound. Compounds were screened at 1 μM or lower, using 1% DMSO as vehicle. Biochemical assay results are presented as the percent inhibition of specific binding in Table 4.

[2] = target: T1, human recombinant serotonin (5-Hydroxytryptamine) 5-HT2A receptor (Homo sapiens, UniProt P28223); experiment: Serotonin 5-HT2A radioligand binding ([3H]Ketanserin)
T1 construct: expressed in transfected cells; host or cells: Chinese hamster ovary (CHO-K1) cells
Protocol: (1997), 68:1998] in a 50 mM Tris-HCl buffer, pH 7.4, was used. Compounds of the invention were incubated with 0.5 nM [^3H]Ketanserin for 60 min at 25° C. Non-specific binding was estimated in the presence of 1 μM Mianserin. Receptor proteins were filtered and washed, the filters were then counted to determine [^3H]Ketanserin specifically bound. Compounds were screened at 1 μM or lower, using 1% DMSO as vehicle. Biochemical assay results are presented as the percent inhibition of specific binding in Table 4.

[3] = target: T2, human recombinant serotonin (5-Hydroxytryptamine) 5-HT6 receptor (Homo sapiens, UniProt P50406); experiment: Serotonin 5-HT6 radioligand binding ([3H]LSD)
T2 construct: expressed in transfected cells; host or cells: human HeLa cells
Protocol: Compounds of the invention were incubated with 1.5 nM [3H]Lysergic acid diethylamide (LSD) for 120 min at 37° C. […] Receptor proteins were filtered and washed, the filters were then counted to determine [3H]LSD specifically bound. Compounds were screened at 1 μM or lower, using 1% DMSO as vehicle. Biochemical assay results are presented as the percent inhibition of specific binding in Table 4.

[4] = target: human recombinant histamine H1 receptor (Homo sapiens, UniProt P35367); experiment: Histamine H1 radioligand binding ([3H]Pyrilamine); details: 1 μM; for inhibition at 1 µM: read-out: Binding data (Percentage Inhibition) Histamine Binding H1
Protocol: To evaluate in radioligand binding assays the activity of compounds of the invention, human recombinant histamine H1 receptor expressed in Chinese hamster ovary (CHO) cells [De Backer, M. et al., Biochem. Biophys. Res. Comm. (1993), 197(3):1601] in a modified Tris-HCl buffer (50 mM Tris-HCl, pH 7.4, 2 mM MgCl2, 100 mM NaCl, 250 mM Sucrose) was used. Compounds of the invention were incubated with 1.2 nM [^3H]Pyrilamine for 180 min at 25° C. Non-specific binding was estimated in the presence of 1 μM pyrilamine. Receptor proteins were filtered and washed, the filters were then counted to determine [^3H]Pyrilamine specifically bound. Compounds were screened at 1 μM or lower, using 1% DMSO as vehicle. Biochemical assay results are presented as the percent inhibition of specific binding in Table 2.

[5] = target: T3, human recombinant serotonin (5-Hydroxytryptamine) 5-HT2C receptor (Homo sapiens, UniProt P28335); experiment: Serotonin 5-HT2C radioligand binding ([3H]Mesulergine)
T3 construct: expressed in transfected cells; host or cells: Chinese hamster ovary (CHO-K1) cells
T3 sequence (P28335 33-458): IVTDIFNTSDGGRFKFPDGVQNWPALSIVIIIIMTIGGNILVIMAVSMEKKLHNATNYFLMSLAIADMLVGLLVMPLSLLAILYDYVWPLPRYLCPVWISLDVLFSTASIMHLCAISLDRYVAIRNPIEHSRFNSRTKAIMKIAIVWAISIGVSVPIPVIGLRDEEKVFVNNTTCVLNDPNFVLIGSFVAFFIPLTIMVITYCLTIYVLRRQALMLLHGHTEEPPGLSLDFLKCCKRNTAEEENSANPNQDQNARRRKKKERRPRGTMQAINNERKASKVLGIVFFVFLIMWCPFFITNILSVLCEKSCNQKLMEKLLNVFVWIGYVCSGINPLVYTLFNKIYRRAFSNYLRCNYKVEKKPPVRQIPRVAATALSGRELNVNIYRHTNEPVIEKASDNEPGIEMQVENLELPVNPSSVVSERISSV
Protocol: (1997), 69:1449] in a modified Tris-HCl buffer (50 mM Tris-HCl, pH 7.4, 0.1% Ascorbic Acid, 10 μM Pargyline) was used. Compounds of the invention were incubated with 1 nM [^3H]Mesulergine for 60 min at 25° C. Non-specific binding was estimated in the presence of 1 μM Mianserin. Receptor proteins were filtered and washed, the filters were then counted to determine [^3H]Mesulergine specifically bound. Compounds were screened at 1 μM or lower, using 1% DMSO as vehicle. Biochemical assay results are presented as the percent inhibition of specific binding in Table 4.

[6] = target: T4, human recombinant histamine H2 receptor (Homo sapiens, UniProt P25021); experiment: Histamine H2 radioligand binding (Aminopotentidine); details: read-out: Binding data (Percentage Inhibition) Histamine Binding H2
T4 construct: expressed in transfected cells; host or cells: Chinese hamster ovary (CHO) K1 cells
Protocol: To evaluate in radioligand binding assays the activity of compounds of the invention, human recombinant histamine H2 receptor expressed in Chinese hamster ovary (CHO) K1 cells [Ruat, M., Proc. Natl. Acad. Sci. USA. (1990), 87(5):1658] in a 50 mM Phosphate buffer, pH 7.4 was used. Compounds of the invention were incubated with 0.1 nM […] for 120 min at 25° C. Non-specific binding was estimated in the presence of 3 μM Tiotidine. Receptor proteins were filtered and washed, the filters were then counted to determine […] specifically bound. Compounds were screened at 1 μM or lower, using 1% DMSO as vehicle. Biochemical assay results are presented as the percent inhibition of specific binding in Table 2.

[7] = target: human recombinant dopamine D2L receptor (Homo sapiens, UniProt P14416); experiment: Dopamine D2L radioligand binding ([3H]Spiperone)
Protocol: To evaluate in radioligand binding assays the activity of compounds of the invention, human recombinant dopamine D2L receptor expressed in Chinese hamster ovary (CHO) cells [Grandy, D. K. et al., Proc. Natl. Acad. Sci. USA. (1989), 86:9762; Hayes, G. et al., Mol. Endocrinol. […] Compounds of the invention were incubated with 0.16 nM [^3H]Spiperone for 120 min at 25° C. Non-specific binding was estimated in the presence of 10 μM Haloperidol. Receptor proteins were filtered and washed, the filters were then counted to determine [^3H]Spiperone specifically bound. Compounds were screened at 1 μM or lower, using 1% DMSO as vehicle. Biochemical assay results are presented as the percent inhibition of specific binding in Table 3.

T2 sequence (P50406 whole entry): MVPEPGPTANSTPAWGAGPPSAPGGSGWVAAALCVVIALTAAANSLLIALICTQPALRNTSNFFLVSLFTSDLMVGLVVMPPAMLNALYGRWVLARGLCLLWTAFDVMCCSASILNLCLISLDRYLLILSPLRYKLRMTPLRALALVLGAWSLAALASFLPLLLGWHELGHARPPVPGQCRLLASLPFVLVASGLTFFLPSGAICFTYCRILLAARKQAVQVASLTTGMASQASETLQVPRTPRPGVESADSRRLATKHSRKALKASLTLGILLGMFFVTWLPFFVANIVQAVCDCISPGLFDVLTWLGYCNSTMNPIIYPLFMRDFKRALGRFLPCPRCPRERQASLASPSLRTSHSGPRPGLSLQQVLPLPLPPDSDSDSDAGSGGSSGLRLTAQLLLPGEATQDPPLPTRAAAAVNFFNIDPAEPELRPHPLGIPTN
Chain of human recombinant dopamine D2L receptor (P14416 whole entry): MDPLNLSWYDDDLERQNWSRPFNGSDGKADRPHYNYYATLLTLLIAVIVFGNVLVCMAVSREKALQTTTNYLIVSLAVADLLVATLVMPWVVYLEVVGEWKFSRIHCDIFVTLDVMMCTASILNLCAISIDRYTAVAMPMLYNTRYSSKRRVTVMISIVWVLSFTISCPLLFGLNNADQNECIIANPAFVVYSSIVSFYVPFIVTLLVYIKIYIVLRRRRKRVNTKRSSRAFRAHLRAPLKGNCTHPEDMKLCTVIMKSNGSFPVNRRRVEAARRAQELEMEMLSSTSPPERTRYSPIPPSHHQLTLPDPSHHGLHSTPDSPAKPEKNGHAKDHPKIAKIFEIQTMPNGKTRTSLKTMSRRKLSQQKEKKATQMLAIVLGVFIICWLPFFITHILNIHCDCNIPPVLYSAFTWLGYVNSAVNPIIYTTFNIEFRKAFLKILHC
Chain of human recombinant serotonin (5-Hydroxytryptamine) 5-HT7 receptor (P34969 whole entry): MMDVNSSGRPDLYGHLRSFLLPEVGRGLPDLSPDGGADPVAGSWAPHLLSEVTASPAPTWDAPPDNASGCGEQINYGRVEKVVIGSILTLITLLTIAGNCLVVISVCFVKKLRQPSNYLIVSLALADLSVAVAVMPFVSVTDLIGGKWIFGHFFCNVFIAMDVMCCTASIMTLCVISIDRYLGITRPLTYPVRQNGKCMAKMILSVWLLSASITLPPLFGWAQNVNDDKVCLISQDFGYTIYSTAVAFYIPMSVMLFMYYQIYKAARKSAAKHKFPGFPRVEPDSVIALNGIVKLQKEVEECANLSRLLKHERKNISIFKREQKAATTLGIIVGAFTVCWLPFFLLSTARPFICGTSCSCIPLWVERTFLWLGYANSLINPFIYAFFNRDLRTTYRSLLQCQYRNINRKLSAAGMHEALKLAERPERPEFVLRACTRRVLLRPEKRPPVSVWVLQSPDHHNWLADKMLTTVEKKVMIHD
Chain of human recombinant histamine H1 receptor (P35367 whole entry): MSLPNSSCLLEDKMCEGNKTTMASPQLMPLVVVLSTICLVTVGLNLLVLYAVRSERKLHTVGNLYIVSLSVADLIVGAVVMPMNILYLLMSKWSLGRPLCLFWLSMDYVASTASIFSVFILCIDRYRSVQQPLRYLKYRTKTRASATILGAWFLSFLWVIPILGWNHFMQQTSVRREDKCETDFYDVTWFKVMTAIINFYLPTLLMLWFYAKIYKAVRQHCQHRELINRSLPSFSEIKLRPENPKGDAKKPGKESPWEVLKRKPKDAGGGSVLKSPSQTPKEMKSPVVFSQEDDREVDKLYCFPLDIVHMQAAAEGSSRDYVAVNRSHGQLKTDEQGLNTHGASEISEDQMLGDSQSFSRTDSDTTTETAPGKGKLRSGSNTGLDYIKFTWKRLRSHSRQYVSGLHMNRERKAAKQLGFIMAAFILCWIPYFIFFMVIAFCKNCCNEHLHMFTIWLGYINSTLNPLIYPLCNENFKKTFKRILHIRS
T1 sequence (P28223 whole entry): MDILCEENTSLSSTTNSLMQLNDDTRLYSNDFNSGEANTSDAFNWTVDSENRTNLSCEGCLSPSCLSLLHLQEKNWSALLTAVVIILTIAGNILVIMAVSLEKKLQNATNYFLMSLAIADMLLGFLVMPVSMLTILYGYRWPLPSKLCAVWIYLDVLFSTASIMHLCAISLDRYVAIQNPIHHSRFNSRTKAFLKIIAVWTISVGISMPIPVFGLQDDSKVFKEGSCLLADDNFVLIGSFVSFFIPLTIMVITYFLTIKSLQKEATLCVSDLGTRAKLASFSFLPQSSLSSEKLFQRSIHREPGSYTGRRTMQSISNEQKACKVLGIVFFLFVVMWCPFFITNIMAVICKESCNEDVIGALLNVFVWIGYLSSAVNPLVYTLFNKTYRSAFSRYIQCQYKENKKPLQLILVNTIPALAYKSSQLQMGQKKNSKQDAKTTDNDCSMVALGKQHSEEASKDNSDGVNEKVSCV
T4 sequence (P25021 whole entry): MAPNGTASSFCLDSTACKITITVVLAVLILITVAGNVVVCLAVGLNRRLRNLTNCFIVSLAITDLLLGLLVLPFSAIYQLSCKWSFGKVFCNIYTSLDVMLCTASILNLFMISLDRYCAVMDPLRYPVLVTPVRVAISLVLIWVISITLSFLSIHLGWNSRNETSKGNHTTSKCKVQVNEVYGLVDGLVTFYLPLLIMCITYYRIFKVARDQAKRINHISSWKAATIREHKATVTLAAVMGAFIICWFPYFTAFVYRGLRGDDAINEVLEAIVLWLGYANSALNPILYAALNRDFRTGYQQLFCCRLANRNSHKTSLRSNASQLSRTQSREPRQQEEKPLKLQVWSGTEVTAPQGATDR

Row | Structure (SMILES) | Percent Inhibition of ligand binding Serotonin 5-HT7 ([1]; 0.1 μM ligand concentration) [%] | Percent Inhibition of ligand binding Serotonin 5-HT2A ([2]; 0.1 μM ligand concentration) [%] | Percent Inhibition of ligand binding Serotonin 5-HT6 ([3]; 0.1 μM ligand concentration) [%] | Percent Inhibition of ligand binding Serotonin 5-HT7 ([1]; 1 μM ligand concentration) [%] | inhibition at 1 µM [4] [%] | Percent Inhibition of ligand binding Serotonin 5-HT2A ([2]; 1 μM ligand concentration) [%] | Percent Inhibition of ligand binding Serotonin 5-HT6 ([3]; 1 μM ligand concentration) [%] | Percent Inhibition of ligand binding Serotonin 5-HT2C ([5]; 1 μM ligand concentration) [%] | inhibition at 1 µM [6] [%] | Percent Inhibition of ligand binding Dopamine D2L ([7]; 1 μM ligand conc.) [%] | Binding data (Percentage Inhibition) Histamine Binding H1 [4] [%] | Percent Inhibition of ligand binding Serotonin 5-HT2C ([5]; 0.1 μM ligand concentration) [%] | Percent Inhibition of ligand binding Dopamine D2L ([7]; 0.1 μM ligand conc.) [%]
1 | Cc1cnc2c(c1)c1c(n2CCc2ccc(C(F)(F)F)nc2)CCN2CCCC12 (stereo not drawn) [Compound 43, 10-methyl-7-(2-(6-(trifluoromethyl)pyridin-3-yl)ethyl)-2,3,5,6,7,11c-hexahydro-1H-pyrido[3′,2′:4,5]pyrrolo[2,3-g]indolizine] | 22 | 7 | 5 | – | – | – | – | – | – | – | – | – | –
2 | CC(=Cn1c2c(c3cc(C)ccc31)CN1CCCCC1C2)c1ccc(F)cc1 (stereo in doubt) [Compound 5, (E)-5-(2-(4-fluorophenyl)prop-1-enyl)-2-methyl-5,6,6a,7,8,9,10,12-octahydroindolo[2,3-b]quinolizine] | – | – | – | 97 | 76 | 98 | 96 | 92 | 97 | 28 | – | – | –
3 | CC(=Cn1c2c(c3cc(C)ccc31)C1CCCCN1CC2)c1ccc(F)cc1 (stereo in doubt) [Compound 6, (E)-8-(2-(4-fluorophenyl)prop-1-enyl)-11-methyl-1,2,3,4,6,7,8,12c-octahydroindolo[3,2-a]quinolizine] | – | – | – | 92 | 28 | 99 | 105 | 94 | 67 | 94 | – | – | –
4 | CC(=Cn1c2c(c3cc(C)ccc31)C1CCCN1CC2)c1ccc(F)cc1 (stereo in doubt) [Compound 4, (E)-7-(2-(4-fluorophenyl)prop-1-enyl)-10-methyl-2,3,5,6,7,11c-hexahydro-1H-indolizino[7,8-b]indole] | – | 87 | 100 | 101 | 41 | 99 | 103 | 99 | 75 | 90 | 53 | 88 | 59
5 | CC(=Cn1c2c(c3cc(C)ccc31)CN1CCCC1C2)c1ccc(F)cc1 (stereo in doubt) [Compound 3, (E)-10-(2-(4-fluorophenyl)prop-1-enyl)-7-methyl-2,3,5,10,11,11a-hexahydro-1H-indolizino [7,6-b]indole] | – | – | – | 94 | 88 | 90 | 101 | 99 | 97 | 11 | – | – | –
6 | FC(F)(F)c1ccc(CCn2c3c(c4cccnc42)C2CCCN2CC3)cn1 (stereo not drawn) [Compound 40, 7-(2-(6-(trifluoromethyl)pyridin-3-yl)ethyl)-2,3,5,6,7,11c-hexahydro-1H-pyrido[3′,2′:4,5]pyrrolo[2,3-g]indolizine] | 10 | 6 | 1 | – | – | – | – | – | – | – | – | – | –
7 | FC(F)(F)c1ccc(CCn2c3c(c4cccnc42)CN2CCCC2C3)cn1 (stereo not drawn) [Compound 39, 11-(2-(6-(trifluoromethyl)pyridin-3-yl)ethyl)-7,8,9,9a,10,11-hexahydro-5H-pyrido[3′,2′:4,5]pyrrolo[3,2-f]indolizine] | 2 | 24 | −5 | – | – | – | – | – | – | – | – | – | –
8 | Cc1cnc2c(c1)c1c(n2CCc2ccc(C(F)(F)F)nc2)CC2CCCN2C1 (stereo not drawn) [Compound 44, 3-methyl-11-(2-(6-(trifluoromethyl)pyridin-3-yl)ethyl)-7,8,9,9a,10,11-hexahydro-5H-pyrido[3′,2′:4,5]pyrrolo[3,2-f]indolizine] | 24 | 65 | 9 | – | – | – | – | – | – | – | – | – | –
